Like-named read-outs stand apart in the source and are kept apart here.
Tests used:
[1] = Steady state radiolytic reduction by the CO2.− radical with HPLC-MS; format: physicochemical; settings: for Detection of MNA (methyl nitroaromatic) / release of effector following 1-electron reduction: HPLC-MS; for release of effector following 1-electron reduction: steady state radiolysis
[2] = tested on: A431 cells; experiment: Cellular growth inhibition (sulforhodamine B); settings: for IC50: Homo sapiens; for A431 Deact. (fold reduction in oxic growth inhibition relative to parent kinase inhibitor) / A431 HCR (Hypoxic Cytotoxicity Ratio): Table 3
[3] = tested on: SW620 cells; experiment: Cellular growth inhibition (sulforhodamine B); format: cell-based, Human; settings: Table 3; for IC50: Homo sapiens, SW-620
[4] = biological target: erbB2 (Homo sapiens, UniProt P04626); experiment: Isolated enzyme inhibition (Invitrogen Z′-LYTE kinase assay); format: biochemical; settings: 10 μM ATP, duplicate
Experimental: (§1) The compounds of Table 1 were tested for their ability to inhibit erbB1, erbB1^T790M, erbB2 and erbB4 in an isolated enzyme assay. This assay utilises synthetic FRET-capable peptide substrates. Phosphorylation of these substrates protects them from cleavage by a development reagent, leaving their FRET-capabilities intact. […] As a further consideration, for compounds capable of irreversible inhibition of an enzyme, the IC50 reflects both reversible and irreversible binding to the enzyme.

[5] = biological target: T1, erbB1 (Homo sapiens, UniProt P00533); experiment: Cellular erbB1 inhibition under oxic and hypoxic conditions in A431 cells; format: cell-based; settings: 1 μM, 4 hour exposure oxic or hypoxic, washed, EGF stimulated
[6] = biological target: T1, erbB1; experiment: Isolated enzyme inhibition (Invitrogen Z′-LYTE kinase assay); format: biochemical; settings: 10 μM ATP, duplicate
[7] = Pulse radiolysis (E(1) and fragmentation rate); format: physicochemical; settings: determined against methylviologen
Experimental: (§2) Pulse radiolysis was used to monitor the 1-electron reduction and stability of the compounds in real time. A linear accelerator delivering short pulses of high energy electrons (2-3 Gy in 200 ns of 4 MeV) equipped with a fast spectophotometric detection system was used. (Anderson et al, J. Phys. Chem. A, 101, 9704-9709, 1997). […] The rate of fragmentation was determined by analysing kinetic transients at wavelengths corresponding to the formation of the benzyl-type radical of the trigger moiety. (Bays et al, J. Am. Chem. Soc., 105, 320-324, 1983; Anderson et al, J. Phys. Chem. A, 101, 9704-9709, 1997).
The pulse radiolysis method, for example, measures the equilibrium constant between the radical anions of the prodrugs, formed upon their 1-electron reduction, and reference standards such as viologen and quinone compounds, from which data the E(1) values of the compounds can be calculated. (Meisel and Czapski. J. Phys. Chem., 1975, 79, 1503-1509.) The E(1) values of prodrugs 17-22, 140-145 were measured by the pulse radiolysis method and determined to range between −0.493V and −0.388V (Table 4).
The rate constants for fragmentation, kfrag, of the 1-electron reduced prodrugs can be measured using pulse radiolysis to observe the time-resolved formation of the absorption spectrum of the benzyl-type radical produced upon fragmentation of the radical anion. (Anderson et al, J. Phys. Chem. A, 1997, 101, 9704-9709.) The kfrag values of prodrugs 19, 20, 140, 141 and 143-145 were measured by pulse radiolysis and are presented in Table 4.
as §2, with “one-electron” for “1-electron”, “prodrug 42” for “the compounds”, “used.” for “used. (Anderson et al, J. Phys. Chem. A, 101, 9704-9709, 1997).”, “1997.)” for “1997).”

[8] = tested on: SKBR3 cells; experiment: Cellular growth inhibition (sulforhodamine B); format: cell-based, Human; settings: Table 3; for IC50: Homo sapiens, SK-BR-3
[9] = biological target: erbB4 (Homo sapiens, UniProt Q15303); experiment: Isolated enzyme inhibition (Invitrogen Z′-LYTE kinase assay); format: biochemical; settings: 10 μM ATP, duplicate
Experimental: as §1

[10] = biological target: erbB1^T790M (Homo sapiens, UniProt P00533, T790M); experiment: as above; format: biochemical; settings: 10 μM ATP, duplicate
[11] = biological target: T1, erbB1; experiment: Inhibition of erbB1 autophosphorylation in EGF-stimulated intact A431 cells (Western blot); settings: for Deact. (fold reduction in cellular erbB1 inhibition relative to the parent kinase inhibitor): Table 2
[12] = tested on: H1975 cells; experiment: Cellular growth inhibition (sulforhodamine B); format: cell-based, Human; settings: Table 9; for IC50: Homo sapiens, NCI-H1975
[13] = physchem
[14] = tested on: H1975 xenografts; experiment: In vivo efficacy in H1975 xenografts; design: species or system mice; settings: H1975 xenografts, q3dx4 at respective MTD, IP
Experimental: Specific pathogen-free homozygous female NIH-III nude mice (Charles River Laboratories, Wilmington, Mass.) were inoculated subcutaneously with a single cell suspension of H1975 cells (5×10^6 cells/100 μL; right flank). When H1975 tumour xenografts were established (typically 8-12 days) mice were randomized to treatment groups. All compounds were prepared in lactate buffer (pH4). Mice were dosed by intraperitoneal injection (0.01-0.03 ml/g) using the stated schedules and dose levels. For growth delay experiments mice were randomized to treatment and tumor volume [π(length×width^2)/6] and body weight were measured daily following treatment. […] Differences in RTV^4 were tested for statistical difference by Mann Whitney U test using SigmaStat v3.5.

[15] = Chemical stability by HPLC; settings: HPLC after 24 h at 37° C.
[16] = tested on: SKOV3 cells; experiment: Cellular growth inhibition (sulforhodamine B); format: cell-based, Human; settings: Table 9; for IC50: Homo sapiens, SK-OV-3
[17] = HPLC-MS at 0.95 reducing equivalents
[18] = A-431, 24 h, read-out: Cellular Growth Inhibition IC50 A431 Oxic
[19] = A-431, read-out: Cellular Growth Inhibition IC50 A431 Anoxic
[20] = 24 hour exposure entirely oxic, read-out: Cellular Growth Inhibition IC50 SW620 Oxic
[21] = first 4 hours anoxic, read-out: Cellular Growth Inhibition IC50 SW620 Anoxic
[22] = 24 hour exposure entirely oxic, read-out: Cellular Growth Inhibition IC50 SKBR3 Oxic
[23] = first 4 hours anoxic, read-out: Cellular Growth Inhibition IC50 SKBR3 Anoxic

Sequence of erbB2 (P04626 23-1255): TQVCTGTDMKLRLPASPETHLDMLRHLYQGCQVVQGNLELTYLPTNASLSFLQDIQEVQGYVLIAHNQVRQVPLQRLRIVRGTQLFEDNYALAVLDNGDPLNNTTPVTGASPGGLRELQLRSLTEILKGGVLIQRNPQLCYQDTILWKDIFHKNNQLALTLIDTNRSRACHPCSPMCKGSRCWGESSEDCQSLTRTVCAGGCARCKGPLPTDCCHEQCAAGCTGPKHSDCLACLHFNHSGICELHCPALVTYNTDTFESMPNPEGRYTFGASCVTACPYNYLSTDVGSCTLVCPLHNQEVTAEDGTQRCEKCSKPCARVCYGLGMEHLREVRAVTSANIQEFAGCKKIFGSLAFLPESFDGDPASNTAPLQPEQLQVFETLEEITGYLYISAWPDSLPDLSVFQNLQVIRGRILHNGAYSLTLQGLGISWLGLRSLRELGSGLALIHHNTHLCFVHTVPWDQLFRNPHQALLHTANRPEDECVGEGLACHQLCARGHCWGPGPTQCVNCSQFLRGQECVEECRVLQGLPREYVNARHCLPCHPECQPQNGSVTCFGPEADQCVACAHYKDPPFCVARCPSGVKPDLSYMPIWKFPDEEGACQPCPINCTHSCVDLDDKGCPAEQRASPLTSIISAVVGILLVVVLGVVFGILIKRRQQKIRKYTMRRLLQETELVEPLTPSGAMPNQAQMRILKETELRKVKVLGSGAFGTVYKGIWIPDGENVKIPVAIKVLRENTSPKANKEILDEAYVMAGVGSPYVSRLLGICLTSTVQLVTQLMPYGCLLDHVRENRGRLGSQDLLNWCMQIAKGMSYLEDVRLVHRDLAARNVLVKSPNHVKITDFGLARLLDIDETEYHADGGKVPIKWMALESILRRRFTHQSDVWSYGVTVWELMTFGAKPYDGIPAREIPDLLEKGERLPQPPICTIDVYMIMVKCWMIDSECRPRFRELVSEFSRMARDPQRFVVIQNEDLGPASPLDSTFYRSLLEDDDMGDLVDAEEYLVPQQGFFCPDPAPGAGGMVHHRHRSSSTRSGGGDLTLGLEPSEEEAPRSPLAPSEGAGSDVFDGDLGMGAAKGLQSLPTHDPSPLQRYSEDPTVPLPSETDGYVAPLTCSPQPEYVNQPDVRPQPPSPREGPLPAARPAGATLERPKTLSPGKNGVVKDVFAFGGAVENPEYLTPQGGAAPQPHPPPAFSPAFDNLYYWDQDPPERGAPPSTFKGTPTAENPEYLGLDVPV
T1 sequence (P00533 25-1210): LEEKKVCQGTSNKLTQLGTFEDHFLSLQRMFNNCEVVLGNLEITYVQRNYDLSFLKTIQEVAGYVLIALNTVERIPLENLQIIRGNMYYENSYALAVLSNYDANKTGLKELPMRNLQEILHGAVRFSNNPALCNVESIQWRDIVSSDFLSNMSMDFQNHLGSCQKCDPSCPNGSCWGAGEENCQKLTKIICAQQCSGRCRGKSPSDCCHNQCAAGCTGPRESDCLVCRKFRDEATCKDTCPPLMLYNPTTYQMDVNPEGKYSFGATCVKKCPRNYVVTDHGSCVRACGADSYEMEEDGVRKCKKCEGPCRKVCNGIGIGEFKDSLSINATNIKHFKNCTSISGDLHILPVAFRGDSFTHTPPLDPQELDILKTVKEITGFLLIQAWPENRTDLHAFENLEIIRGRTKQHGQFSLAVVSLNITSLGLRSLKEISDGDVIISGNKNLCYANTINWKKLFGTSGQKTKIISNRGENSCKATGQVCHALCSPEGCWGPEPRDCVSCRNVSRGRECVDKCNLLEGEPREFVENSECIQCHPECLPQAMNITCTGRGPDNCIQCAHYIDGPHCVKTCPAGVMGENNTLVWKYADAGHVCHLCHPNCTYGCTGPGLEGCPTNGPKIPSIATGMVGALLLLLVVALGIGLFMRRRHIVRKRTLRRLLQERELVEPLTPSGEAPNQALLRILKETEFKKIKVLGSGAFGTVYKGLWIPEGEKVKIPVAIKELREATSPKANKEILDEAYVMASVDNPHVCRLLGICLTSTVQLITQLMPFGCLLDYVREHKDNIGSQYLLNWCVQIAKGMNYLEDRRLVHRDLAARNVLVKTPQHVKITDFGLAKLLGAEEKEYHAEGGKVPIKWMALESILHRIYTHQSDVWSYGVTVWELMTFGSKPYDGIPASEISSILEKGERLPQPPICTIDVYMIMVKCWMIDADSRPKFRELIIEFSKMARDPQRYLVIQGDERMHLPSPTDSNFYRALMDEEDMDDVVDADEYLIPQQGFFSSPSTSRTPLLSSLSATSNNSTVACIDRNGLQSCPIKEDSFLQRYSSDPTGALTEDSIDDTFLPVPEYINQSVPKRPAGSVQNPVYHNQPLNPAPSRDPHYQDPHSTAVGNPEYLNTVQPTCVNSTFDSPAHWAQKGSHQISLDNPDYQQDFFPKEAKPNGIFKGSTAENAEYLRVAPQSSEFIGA
Sequence of erbB1^T790M (P00533 25-1210 T790M): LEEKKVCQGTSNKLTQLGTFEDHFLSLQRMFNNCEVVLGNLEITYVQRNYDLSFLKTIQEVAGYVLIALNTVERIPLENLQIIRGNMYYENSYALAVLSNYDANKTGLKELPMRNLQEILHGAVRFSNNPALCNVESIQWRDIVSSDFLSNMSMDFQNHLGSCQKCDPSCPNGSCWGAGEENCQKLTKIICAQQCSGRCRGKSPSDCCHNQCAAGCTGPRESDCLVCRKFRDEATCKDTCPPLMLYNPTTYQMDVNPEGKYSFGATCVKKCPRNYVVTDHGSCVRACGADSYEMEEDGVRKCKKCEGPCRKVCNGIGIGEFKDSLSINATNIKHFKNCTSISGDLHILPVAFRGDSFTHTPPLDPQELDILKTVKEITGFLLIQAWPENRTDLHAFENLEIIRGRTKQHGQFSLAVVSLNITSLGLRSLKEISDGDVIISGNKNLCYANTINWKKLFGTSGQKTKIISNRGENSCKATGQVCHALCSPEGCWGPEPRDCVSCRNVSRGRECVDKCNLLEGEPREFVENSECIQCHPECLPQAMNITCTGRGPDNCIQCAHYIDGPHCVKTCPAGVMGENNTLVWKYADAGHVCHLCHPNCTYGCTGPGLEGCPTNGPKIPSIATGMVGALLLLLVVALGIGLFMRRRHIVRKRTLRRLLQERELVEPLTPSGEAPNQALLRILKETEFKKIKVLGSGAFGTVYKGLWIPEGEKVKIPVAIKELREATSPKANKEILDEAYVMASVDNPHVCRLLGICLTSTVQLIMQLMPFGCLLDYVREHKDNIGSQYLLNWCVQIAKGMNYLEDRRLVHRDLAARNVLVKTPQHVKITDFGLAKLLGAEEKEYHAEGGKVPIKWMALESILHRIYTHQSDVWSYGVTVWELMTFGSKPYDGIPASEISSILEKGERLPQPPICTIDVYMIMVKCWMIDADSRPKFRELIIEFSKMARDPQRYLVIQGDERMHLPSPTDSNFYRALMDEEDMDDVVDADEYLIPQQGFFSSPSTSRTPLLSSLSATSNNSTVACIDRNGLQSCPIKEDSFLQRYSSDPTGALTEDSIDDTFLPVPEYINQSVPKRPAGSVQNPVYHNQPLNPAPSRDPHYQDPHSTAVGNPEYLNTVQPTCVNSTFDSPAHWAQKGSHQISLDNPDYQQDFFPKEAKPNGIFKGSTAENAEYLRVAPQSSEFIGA
Sequence of erbB4 (Q15303 26-1308): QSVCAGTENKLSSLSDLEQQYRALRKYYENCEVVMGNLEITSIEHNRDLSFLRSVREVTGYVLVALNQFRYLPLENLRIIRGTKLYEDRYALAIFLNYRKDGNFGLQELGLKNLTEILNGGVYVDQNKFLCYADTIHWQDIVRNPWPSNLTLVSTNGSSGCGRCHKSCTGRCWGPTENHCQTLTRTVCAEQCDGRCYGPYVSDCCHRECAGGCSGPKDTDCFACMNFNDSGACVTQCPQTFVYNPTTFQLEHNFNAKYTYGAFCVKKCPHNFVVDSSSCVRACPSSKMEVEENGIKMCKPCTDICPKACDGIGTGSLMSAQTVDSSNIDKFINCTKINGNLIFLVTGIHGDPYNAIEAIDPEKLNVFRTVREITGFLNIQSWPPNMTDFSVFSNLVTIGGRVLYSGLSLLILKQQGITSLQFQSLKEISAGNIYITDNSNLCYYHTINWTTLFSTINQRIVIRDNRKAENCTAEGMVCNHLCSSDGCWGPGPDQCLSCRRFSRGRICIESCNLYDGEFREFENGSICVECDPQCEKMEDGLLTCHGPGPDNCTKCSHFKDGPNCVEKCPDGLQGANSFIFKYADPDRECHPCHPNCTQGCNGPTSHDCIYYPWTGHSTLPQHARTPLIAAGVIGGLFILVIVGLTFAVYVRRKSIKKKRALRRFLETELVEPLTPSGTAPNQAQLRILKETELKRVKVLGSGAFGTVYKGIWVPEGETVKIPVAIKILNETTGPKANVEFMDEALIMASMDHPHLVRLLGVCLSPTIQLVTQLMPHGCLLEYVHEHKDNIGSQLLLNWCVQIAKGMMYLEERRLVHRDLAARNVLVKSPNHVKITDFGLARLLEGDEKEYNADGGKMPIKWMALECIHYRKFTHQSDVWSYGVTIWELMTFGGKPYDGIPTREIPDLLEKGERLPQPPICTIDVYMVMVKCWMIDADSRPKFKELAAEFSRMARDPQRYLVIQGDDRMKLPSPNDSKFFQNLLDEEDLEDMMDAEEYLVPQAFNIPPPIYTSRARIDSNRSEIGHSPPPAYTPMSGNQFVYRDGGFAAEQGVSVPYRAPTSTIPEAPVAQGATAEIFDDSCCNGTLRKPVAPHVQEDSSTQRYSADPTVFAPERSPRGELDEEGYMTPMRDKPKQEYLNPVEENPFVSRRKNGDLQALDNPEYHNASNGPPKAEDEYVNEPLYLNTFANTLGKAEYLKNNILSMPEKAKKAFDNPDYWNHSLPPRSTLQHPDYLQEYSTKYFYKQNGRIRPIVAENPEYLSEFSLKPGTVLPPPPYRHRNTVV

Row | SMILES | Detection of MNA (methyl nitroaromatic) [1] | % Loss of prodrug [1, 17] [%] | IC50 [2, 18] [nM] | IC50 [2, 19] [nM] | IC50 [3, 20] [nM] | IC50 [3, 21] [nM] | IC50 [4] [nM] | hypoxia-selective inhibition of p-erbB1 [5] | IC50 [6] [nM] | E (1)/V (one-electron reduction potential) [7] [V] | IC50 [8, 22] [nM] | IC50 [8, 23] [nM] | IC50 [11] [nM] | release of effector following 1-electron reduction [1] | A431 Deact. (fold reduction in oxic growth inhibition relative to parent kinase inhibitor) [2] [fold] | A431 HCR (Hypoxic Cytotoxicity Ratio) [2] [fold] | SW620 Deact. [3] [fold] | SW620 HCR [3] [fold] | SKBR3 Deact. [8] [fold] | SKBR3 HCR [8] [fold] | also measured
1 | C[N+](C)(C/C=C/C(=O)Nc1ccc2ncnc(Nc3cccc(Br)c3)c2c1)Cc1ccc([N+](=O)[O-])cc1 [Compound 17, (2E)-4-{[4-(3-bromoanilino)-6-quinazolinyl]amino}-N,N-dimethyl-N-(4-nitrobenzyl)-4-oxo-2-buten-1-ammonium bromide] | No | 33 | 462 | 444 | 112000 | 112000 | 110 | no apparent hypoxia-selective inhibition | 0.56 | −0.408 | 1520 | 1840 |  | did not release their respective effector compounds | 12 | 1.0 | 33 | 1.0 | 19 | 0.8 | 
2 | Cn1cnc([N+](=O)[O-])c1C[N+](C)(C)C/C=C/C(=O)Nc1cc2c(Nc3ccc(F)c(C(F)(F)F)c3)ncnc2cn1 [Compound 50, (2E)-4-({4-[4-fluoro-3-(trifluoromethyl)anilino]pyrido[3,4-d]pyrimidin-6-yl}amino)-N,N-dimethyl-N-[(1-methyl-4-nitro-1H-imidazol-5-yl)methyl]-4-oxo-2-buten-1-ammonium bromide] |  |  | 15300 |  |  |  |  |  |  |  |  |  | 969 |  |  |  |  |  |  |  | IC50 ([12]; 24 hour exposure oxic, read-out: Cellular Growth Inhibition IC50 H1975 Oxic): 120000 nM; IC50 ([12]; first 4 hours anoxic, read-out: Cellular Growth Inhibition IC50 H1975 Anoxic): 3780 nM; H1975 Deact. [12]: 70 fold; H1975 HCR [12]: 43.5 fold; IC50 ([2]; A-431, 4 h, read-out: Cellular Growth Inhibition IC50 A431 Anoxic): 250 nM; A431 Deact. ([2]; Table 9): 64 fold; A431 HCR ([2]; Table 9): 65.8 fold; solubility ([13]; aqueous buffer): 72 µM; solubility ([13]; water): > 1300 µM; tumour growth inhibition (TGI) [14]: 114%; Stability PBS (percentage parent remaining) [15]: 88%; Stability Water (percentage parent remaining) [15]: 99%; Stability α-MEM + FCS (5%) (percentage parent remaining) [15]: 64%; IC50 ([16]; 24 hour exposure oxic, read-out: Cellular Growth Inhibition IC50 SKOV3 Oxic): 125000 nM; IC50 ([16]; first 4 hours anoxic, read-out: Cellular Growth Inhibition IC50 SKOV3 Anoxic): 4780 nM; SKOV3 Deact. [16]: 126 fold; SKOV3 HCR [16]: 28.7 fold; Deact. erbB1 (fold reduction in cellular inhibition relative to the parent kinase inhibitor) ([11]; Table 8, A431 cells): 121 fold
3 | C[N+](C)(C/C=C/C(=O)Nc1ccc2ncnc(Nc3cccc(Br)c3)c2c1)Cc1ccccc1[N+](=O)[O-] [Compound 18, (2E)-4-{[4-(3-bromoanilino)-6-quinazolinyl]amino}-N,N-dimethyl-N-(2-nitrobenzyl)-4-oxo-2-buten-1-ammonium bromide] | No | 33 | 2340 | 401 | 92200 | 79800 | 123 | no apparent hypoxia-selective inhibition | 0.2 | −0.388 | 3750 | 1290 |  | did not release their respective effector compounds | 59 | 5.8 | 27 | 1.2 | 44 | 2.8 | 

Continued, in another order:

Row | Detection of MNA (methyl nitroaromatic) [1] | % Loss of prodrug [1, 17] [%] | IC50 [2, 18] [nM] | IC50 [2, 19] [nM] | IC50 [3, 20] [nM] | IC50 [3, 21] [nM] | IC50 [4] [nM] | hypoxia-selective inhibition of p-erbB1 [5] | IC50 [6] [nM] | E (1)/V (one-electron reduction potential) [7] [V] | IC50 [8, 22] [nM] | IC50 [8, 23] [nM] | IC50 [11] [nM] | SMILES | release of effector following 1-electron reduction [1] | A431 Deact. (fold reduction in oxic growth inhibition relative to parent kinase inhibitor) [2] [fold] | A431 HCR (Hypoxic Cytotoxicity Ratio) [2] [fold] | SW620 Deact. [3] [fold] | SW620 HCR [3] [fold] | SKBR3 Deact. [8] [fold] | SKBR3 HCR [8] [fold] | also measured
4 |  |  | 255000 | 76100 | 684000 | 585000 | 191 |  | 0.64 |  | 507000 | 74300 | 3600 | Cn1cnc([N+](=O)[O-])c1C[N+](C)(C)CCCC(=O)Nc1ccc2ncnc(Nc3cccc(Br)c3)c2c1 [Compound 27, 4-{([4-(3-bromoanilino)-6-quinazolinyl]amino}-N,N-dimethyl-N-[(1-methyl-4-nitro-1H-imidazol-5-yl)methyl]-4-oxo-1-butanaminium bromide] |  | 203 | 3.4 | 37 | 1.2 | 159 | 7.6 | IC50 [9]: 174 nM; IC50 [10]: 798 nM; Deact. (fold reduction in cellular erbB1 inhibition relative to the parent kinase inhibitor) ([11]; A431 cells): 201 fold
5 | No | 35 | 5860 | 564 | 281000 | 123000 | 135 | no apparent hypoxia-selective inhibition | 0.46 | −0.449 | 11000 | 1640 | 1390 | Cn1ncc([N+](=O)[O-])c1C[N+](C)(C)C/C=C/C(=O)Nc1ccc2ncnc(Nc3cccc(Br)c3)c2c1 [Compound 22, (2E)-4-{[4-(3-bromoanilino)-6-quinazolinyl]amino}-N,N-dimethyl-N-[(1-methyl-4-nitro-1H-pyrazol-5-yl)methyl]-4-oxo-2-buten-1-ammonium bromide] | did not release their respective effector compounds | 147 | 10.4 | 82 | 2.3 | 136 | 6.7 | Effector release/Prodrug loss ([1]; 0.95 reducing equivalents): 0.49; % Release of effector [1, 17]: 17%; Deact. (fold reduction in cellular erbB1 inhibition relative to the parent kinase inhibitor) ([11]; A431 cells): 151 fold

Source: patent US9073916B2, “Prodrug forms of kinase inhibitors and their use in therapy” (AUCKLAND UNISERVICES LIMITED, priority 2009, dated 2015)
